Results: PubChem BioAssay (NCI)
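Compound exposure: 48 hours, 5 concentrations, 96-well plates. Abbreviation: GI50, concentration required for 50% inhibition of growth. TGI is the concentration that stops growth completely.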

Assays:
Assay in all cases: NCI-60 cell line screen, 48 h
[1] = system: SF-268 CNS
[2] = system: UACC-257 melanoma
[3] = system: SF-295 CNS
[4] = system: OVCAR-8 ovarian
[5] = system: CAKI-1 renal
[6] = system: OVCAR-3 ovarian
[7] = system: HOP-92 NSCLC
[8] = system: PC-3 prostate
[9] = system: HS 578T breast
[10] = system: DU-145 prostate

Row | SMILES | TGI [1] | TGI [2] | TGI [3] | TGI [4] | TGI [5] | TGI [6] | TGI [7] | GI50 [1] | GI50 [8] | TGI [8] | GI50 [9] | TGI [9] | GI50 [2] | GI50 [3] | GI50 [10] | TGI [10] | GI50 [4] | GI50 [5] | GI50 [6] | GI50 [7]
1 | O=C1CCSC2=C1SCc1sccc12 | > 100 µM | > 100 µM | > 100 µM | > 100 µM | > 100 µM | > 100 µM | > 100 µM |  |  |  |  |  |  |  |  |  |  |  |  | 
2 | COc1ccccc1NC(=O)c1nc2ccc([N+](=O)[O-])cc2nc1C | > 100 µM | > 100 µM |  | > 100 µM | > 100 µM | > 100 µM | > 100 µM |  |  |  |  |  |  |  |  |  |  |  |  | 
3 | Clc1ccc(-c2c(C3=NCCCN3)nnn2-c2ccccc2)cc1 | > 100 µM | > 100 µM | > 100 µM | > 100 µM | > 100 µM | > 100 µM | > 100 µM |  |  |  |  |  |  |  |  |  |  |  |  | 
4 | O=C1OCC2=C1C(c1ccc(Cl)c(Cl)c1)c1cc3c(cc1N2CCO)CCC3 (stereo unspecified) | 9.34 µM | 15.7 µM | 1.5 µM | 8.27 µM | 7.89 µM | 0.509 µM |  | 0.343 µM | 0.163 µM | 8.76 µM | 0.232 µM | 14.3 µM | 0.151 µM | 0.108 µM | 0.203 µM | 6.56 µM | 0.221 µM | 0.145 µM | 0.145 µM | 
5 | CC1=CC(N2C(=O)C(C)=CC2O)NC1=O (stereo unspecified) | > 100 µM | > 100 µM | > 100 µM | > 100 µM | > 100 µM | > 100 µM | > 100 µM |  |  |  |  |  |  |  |  |  |  |  |  | 
6 | COC(=O)C1=C(C(=O)OC)C2(C)Nc3ccccc3C2=C(c2ccccc2)C1 (stereo unspecified) | 66.5 µM | 39.7 µM | 58 µM | 61.7 µM |  | 52.2 µM | 38.9 µM |  |  |  |  |  |  |  |  |  |  |  |  | 
7 | Clc1ccc(-c2cc(-c3ccccc3)nc(NCCNc3ccnc4cc(Cl)ccc34)n2)cc1 | 3.8 µM | 4.09 µM | 3.52 µM | 4.1 µM | 2.93 µM | 3.36 µM | 2.8 µM | 1.81 µM |  |  | 1.88 µM | 4.19 µM | 2 µM | 1.8 µM | 1.82 µM | 3.31 µM | 1.91 µM | 1.47 µM | 1.77 µM | 1.32 µM
8 | CC(=O)NC1C(OCc2ccccc2)OC(COC(=O)CCCCCCCCCCNc2ccc([N+](=O)[O-])c3[nH]c4ccccc4c(=O)c23)C(O)C1OC(C)C(=O)NC(C)C(=O)NC(CCC(N)=O)C(=O)OCc1ccccc1 (stereo unspecified) | > 100 µM | > 100 µM | > 100 µM | > 100 µM | > 100 µM | > 100 µM |  |  |  |  |  |  |  |  |  |  |  |  |  | 
9 | COc1cc(C(=O)Nc2cc(OC)c3ccn(C)c3c2)cc2c1C[C@]1(C)CC[C@@H](O)C(C)(C)[C@H]1O2 | > 100 µM | 30.7 µM | 0.143 µM | 58 µM |  | 4.86 µM | 6.03 µM | 1.99 µM | 0.195 µM | > 100 µM | 0.0673 µM | 2.05 µM | 1.63 µM | 0.0302 µM | 1.22 µM | 29 µM | 2.69 µM |  | 1.68 µM | 0.593 µM
10 | O=C(c1ccco1)c1c(C(F)(F)F)n([O-])c2ccc(Cl)cc2[n+]1=O | 3.18 µM | 3.08 µM | 7.05 µM | 2.1 µM | 4.21 µM | 3.92 µM |  | 1.61 µM | 0.294 µM | 1.07 µM | 1.49 µM | 4.37 µM | 1.31 µM | 1.79 µM | 0.341 µM | 1.44 µM | 0.799 µM | 0.961 µM | 1.11 µM | 
11 | CN1CCN(C)C12C=CC=CC21CC1 | > 100 µM | > 100 µM | > 100 µM | > 100 µM | > 100 µM | > 100 µM | > 100 µM |  |  |  |  |  |  |  |  |  |  |  |  | 
12 | COc1cc(-c2cc(-c3cc(OC)c(OC)c(OC)c3)nc3nc(N)[nH]c(=O)c23)ccc1Oc1ccnc2cc(Cl)ccc12 | > 100 µM | 60.8 µM | 85.5 µM | 79.5 µM | > 100 µM | 13.6 µM |  | 3.43 µM | 3.18 µM | > 100 µM | 3.1 µM | > 100 µM | 7.08 µM | 4.52 µM | 3.51 µM | > 100 µM | 3.17 µM | 2.7 µM | 0.736 µM | 
13 | COc1cc([C@@H]2C[C@H]2c2cc(SC)n[nH]2)cc(OC)c1OC | 50 µM | 50.7 µM | 28.5 µM | 45.1 µM | 37.9 µM | 30.5 µM |  | 15.1 µM | 18.1 µM | 57.2 µM | 15.1 µM | 45.2 µM | 17.7 µM | 10.9 µM | 17.7 µM | > 100 µM | 14 µM | 15.6 µM | 13.2 µM | 
14 | COc1ccc(C2=NN(C(=O)c3cc(OC)c(OC)c(OC)c3)C(c3ccc(N(C)C)cc3)C2)cc1 (stereo unspecified) | > 100 µM | > 100 µM | 40.4 µM | > 100 µM |  | 4.7 µM | > 100 µM | 0.736 µM | 0.529 µM | > 100 µM | 0.266 µM | 1.56 µM | 97.6 µM | 0.339 µM | 1.74 µM | > 23.7 µM | 2.42 µM |  | 0.284 µM | 0.886 µM
15 | Cn1c(/C=C/[N+](=O)[O-])cc2ccccc21 | 27.4 µM | 6.86 µM | > 100 µM | 31.7 µM |  | 3.49 µM |  | 11.7 µM | 6.75 µM | 35.5 µM |  |  | 2.11 µM | 5.84 µM | 1.65 µM | 3.21 µM | 3.17 µM |  | 1.66 µM | 
16 | c1ccc2cc(C[n+]3ccn(CCCCCCCCCCn4cc[n+](Cc5ccc6ccccc6c5)c4)c3)ccc2c1 | 12.3 µM | 5.58 µM | 5.44 µM | 13.1 µM |  | 7.09 µM | 2.96 µM | 0.61 µM | 1.19 µM | 7.3 µM | 1.03 µM | 3.63 µM | 1.37 µM | 0.554 µM | 1.06 µM | 14.1 µM | 2.18 µM |  | 1.95 µM | 0.396 µM
17 | O=C(COC(=O)c1cccc2c(=O)c3ccccc3[nH]c12)Nc1ccc(C(=O)O)cc1 | > 100 µM | > 100 µM | > 100 µM | > 100 µM | > 100 µM | > 100 µM | > 100 µM |  |  |  |  |  |  |  |  |  |  |  |  | 
